Test results from patent publication US8981111B2 (priority 2008, dated 2015).

assay: log P (HPLC/MS data of the preparation examples); conditions: HPLC (LC-MS) method [b]: pH 2.7, 0.1% formic acid in water and acetonitrile, linear gradient 10% to 95% acetonitrile; EEC directive 79/831 Annex V.A8

Row | Compound | log p
1 | CC(C)C(=O)Nc1cccc(CON=C(c2cccs2)c2nccn2C)n1 [Example 415] | 1.65^[b]
2 | Cn1ncnc1C(=NOCc1cccc(N2C(=O)c3ccccc3C2=O)n1)c1cccs1 [Example 416] | 2.64^[b]
3 | Cn1cncc1C(=NOCc1cccc(N2C(=O)c3ccccc3C2=O)n1)c1ccsc1 [Example 417] | 1.73^[b]
4 | Cn1cncc1C(=NOCc1cccc(N2C(=O)c3ccccc3C2=O)n1)c1cccs1 [Example 420] | 1.66^[b]
5 | Cn1cncc1C(=NOCc1csc(N)n1)c1cccs1 [Example 421] | 0.22^[b]
6 | Cn1cncc1C(=NOCc1csc(N)n1)c1ccsc1 [Example 422] | 0.45^[b]
7 | Cn1cncc1C(=NOCc1cccc(N)n1)c1cccs1 [Example 423] | 0.08^[b]
8 | CCCCCOC(=O)Nc1cccc(CON=C(c2ccsc2)c2cncn2C)n1 [Example 425] | 2.82^[b]
9 | CCCCCC(=O)Nc1nc(CON=C(c2ccsc2)c2cncn2C)cs1 [Example 428] | 1.99^[b]
10 | CCCCCC(=O)Nc1nc(CON=C(c2cccs2)c2cncn2C)cs1 [Example 429] | 1.93^[b]
11 | Cn1cncc1C(=NOCc1cccc(NC(=O)COc2ccccc2)n1)c1cccs1 [Example 431] | 1.94^[b]
12 | CC(C)C(=O)Nc1nc(CON=C(c2cccs2)c2cncn2C)cs1 [Example 433] | 1.53^[b]
13 | Cn1cncc1C(=NOCc1csc(NC(=O)COc2ccccc2)n1)c1cccs1 [Example 434] | 1.87^[b]
14 | Cn1cncc1C(=NOCc1cccc(NC(=O)COc2ccccc2)n1)c1ccsc1 [Example 435] | 1.96^[b]
15 | Cn1cncc1C(=NOCc1cccc(NC(=O)C(C)(C)C)n1)c1ccsc1 [Example 436] | 1.7^[b]
16 | CCCC(=O)Nc1cccc(CON=C(c2ccsc2)c2cncn2C)n1 [Example 437] | 1.52^[b]
17 | CCCCCCC(=O)Nc1cccc(CON=C(c2ccsc2)c2cncn2C)n1 [Example 438] | 2.25^[b]
18 | CC(C)C(=O)Nc1cccc(CON=C(c2ccsc2)c2cncn2C)n1 [Example 439] | 1.5^[b]

same assay, conditions: HPLC, method [a]: pH 2.3 with 0.1% phosphoric acid and acetonitrile as eluent

Row | Compound | log p
19 | CC(C)CC(=O)Nc1cccc(CON=C(c2cccs2)c2ncnn2C)n1 [Example 396] | 2.78^[a];

same assay, conditions: LC-MS, method [b]: pH 2.7 with 0.1% formic acid in water and acetonitrile, linear gradient 10% to 95% acetonitrile

Row | Compound | log p
20 | Cc1ncoc1C(=NOCc1cccc(N2C(=O)c3ccccc3C2=O)n1)c1ccccc1 [Example 353] | 3.09^[b]
21 | CCCCC#Cc1cccc(CON=C(c2ccccc2)c2nncn2C)n1 [Example 354] | 3.23^[b]
22 | COc1ccc(C(=NOCc2cccc(N3C(=O)c4ccccc4C3=O)n2)c2ncc(C(F)(F)F)cc2Cl)cc1Br [Example 356] | 4.78^[b]
23 | COc1ccc(C(=NOCc2csc(N)n2)c2ncc(C(F)(F)F)cc2Cl)cc1Br [Example 357] | 2.8^[b]
24 | COc1ccc(C(=NOCc2cccc(N)n2)c2ncc(C(F)(F)F)cc2Cl)cc1Br [Example 358] | 2.54^[b]
25 | COc1ccc(C(=NOCc2cccc(NC(=O)C(C)(C)C)n2)c2ncc(C(F)(F)F)cc2Cl)cc1Br [Example 359] | 5.2^[b]
26 | COc1ccc(C(=NOCc2cccc(NC(=O)C3CC3)n2)c2ncc(C(F)(F)F)cc2Cl)cc1Br [Example 360] | 4.54^[b]
27 | COc1ccc(C(=NOCc2cccc(NC(=O)C(F)(F)F)n2)c2ncc(C(F)(F)F)cc2Cl)cc1Br [Example 361] | 4.97^[b]
28 | COCCOCC(=O)Nc1cccc(CON=C(c2ccc(OC)c(Br)c2)c2ncc(C(F)(F)F)cc2Cl)n1 [Example 362] | 4.51^[b]
29 | CCCCCOC(=O)Nc1cccc(CON=C(c2ccc(OC)c(Br)c2)c2ncc(C(F)(F)F)cc2Cl)n1 [Example 363] | 6.13^[b]
30 | COc1ccc(C(=NOCc2cccc(NC(=O)c3ccccc3)n2)c2ncc(C(F)(F)F)cc2Cl)cc1Br [Example 364] | 5.23^[b]
31 | COc1ccc(C(=NOCc2cccc(NC(=O)Cc3ccccc3)n2)c2ncc(C(F)(F)F)cc2Cl)cc1Br [Example 365] | 5.08^[b]
32 | CCCCCCCCC(=O)Nc1cccc(CON=C(c2ccc(OC)c(Br)c2)c2ncc(C(F)(F)F)cc2Cl)n1 [Example 366] | 6.65^[b]
33 | COc1ccc(C(=NOCc2cccc(NC(=O)C(C)C)n2)c2ncc(C(F)(F)F)cc2Cl)cc1Br [Example 367] | 4.73^[b]
34 | CCCCCC(=O)Nc1cccc(CON=C(c2ccc(OC)c(Br)c2)c2ncc(C(F)(F)F)cc2Cl)n1 [Example 368] | 5.44^[b]
35 | CCCCCCC(=O)Nc1cccc(CON=C(c2ccc(OC)c(Br)c2)c2ncc(C(F)(F)F)cc2Cl)n1 [Example 369] | 5.82^[b]
36 | COc1ccc(C(=NOCc2cccc(NC(=O)CC(C)C)n2)c2ncc(C(F)(F)F)cc2Cl)cc1Br [Example 370] | 5.03^[b]
37 | CCCCCOC(=O)Nc1nc(CON=C(c2ccc(OC)c(Br)c2)c2ncc(C(F)(F)F)cc2Cl)cs1 [Example 371] | 5.59^[b]
38 | Cc1cnc(C)c(C(=NOCc2cccc(N3C(=O)c4ccccc4C3=O)n2)c2ccccc2)n1 [Example 372] | 3.35^[b]
39 | Cc1cnc(C)c(C(=NOCc2cccc(N)n2)c2ccccc2)n1 [Example 373] | 1.31^[b]

Row | Compound | log p
40 | CCCOC(=O)Nc1cccc(CON=C(c2ccccc2)c2nc(C)cnc2C)n1 [Example 374] | 3.81^[b]
41 | CCCCCCOC(=O)Nc1cccc(CON=C(c2ccccc2)c2nc(C)cnc2C)n1 [Example 375] | 5.2^[b]
42 | CCCCOC(=O)Nc1cccc(CON=C(c2ccccc2)c2nc(C)cnc2C)n1 [Example 376] | 4.29^[b]
43 | CCCCCC(=O)Nc1cccc(CON=C(c2ccccc2)c2nc(C)cnc2C)n1 [Example 377] | 4.09^[b]
44 | CCCCCOC(=O)Nc1cccc(CON=C(c2ccccc2)c2nc(C)cnc2C)n1 [Example 378] | 4.75^[b]
45 | CCCCC(=O)Nc1cccc(CON=C(c2ccccc2)c2nc(C)cnc2C)n1 [Example 379] | 3.65^[b]
46 | CCCCCCC(=O)Nc1cccc(CON=C(c2ccccc2)c2nc(C)cnc2C)n1 [Example 380] | 4.54^[b]
47 | CCCC(=O)Nc1cccc(CON=C(c2ccccc2)c2nc(C)cnc2C)n1 [Example 381] | 3.21^[b]
48 | Nc1ccnc(CON=C(c2ccsc2)c2snc(Cl)c2Cl)n1 [Example 382] | 1.86^[b]
49 | Nc1nc(CON=C(c2ccsc2)c2snc(Cl)c2Cl)cs1 [Example 383] | 2.51^[b]
50 | CC(C)(C)C(=O)Nc1ccnc(CON=C(c2ccsc2)c2snc(Cl)c2Cl)n1 [Example 384] | 4.67^[b]
51 | Cn1ccnc1C(=NOCc1cccc(N2C(=O)c3ccccc3C2=O)n1)c1cccs1 [Example 385] | 1.78^[b]
52 | CCCCCC(=O)Nc1ccnc(CON=C(c2cccs2)c2nccn2C)n1 [Example 388] | 1.93^[b]
53 | CC(C)CC(=O)Nc1ccnc(CON=C(c2cccs2)c2nccn2C)n1 [Example 389] | 1.59^[b]
54 | Cn1ccnc1C(=NOCc1nccc(NC(=O)C(C)(C)C)n1)c1cccs1 [Example 390] | 1.56^[b]
55 | Cn1ncnc1C(=NOCc1cccc(N)n1)c1cccs1 [Example 391] | 0.82^[b]
56 | Cn1ncnc1C(=NOCc1cccc(NC(=O)CCc2ccccc2)n1)c1cccs1 [Example 392] | 3.17^[b]
57 | CCCCCC(=O)Nc1cccc(CON=C(c2cccs2)c2ncnn2C)n1 [Example 393] | 3.23^[b]
58 | CCCCCOC(=O)Nc1cccc(CON=C(c2cccs2)c2ncnn2C)n1 [Example 394] | 3.82^[b]
59 | Cn1ncnc1C(=NOCc1cccc(NC(=O)C(C)(C)C)n1)c1cccs1 [Example 395] | 2.82^[b]

Row | Compound | log p
60 | CC(C)CC(=O)Nc1cccc(CON=C(c2cccs2)c2ncnn2C)n1 [Example 396] | 2.78^[b]
61 | Cn1ncnc1C(=NOCc1nccc(N)n1)c1cccs1 [Example 397] | 0.47^[b]
62 | Cn1ncnc1C(=NOCc1csc(N)n1)c1cccs1 [Example 398] | 0.92^[b]
63 | CCCCCC(=O)Nc1nc(CON=C(c2cccs2)c2ncnn2C)cs1 [Example 399] | 3.23^[b]
64 | CCCCCOC(=O)Nc1nc(CON=C(c2cccs2)c2ncnn2C)cs1 [Example 400] | 3.53^[b]
65 | Cn1ncnc1C(=NOCc1csc(NC(=O)C(C)(C)C)n1)c1cccs1 [Example 401] | 2.8^[b]
66 | Cn1ncnc1C(=NOCc1csc(NC(=O)Cc2ccccc2)n1)c1cccs1 [Example 402] | 2.82^[b]
67 | Cn1ncnc1C(=NOCc1csc(NC(=O)CCc2ccccc2)n1)c1cccs1 [Example 403] | 3.09^[b]
68 | CC(C)CC(=O)Nc1nc(CON=C(c2cccs2)c2ncnn2C)cs1 [Example 404] | 2.73^[b]
69 | CCCCCC(=O)Nc1ccnc(CON=C(c2cccs2)c2ncnn2C)n1 [Example 405] | 3^[b]
70 | CCCCCOC(=O)Nc1ccnc(CON=C(c2cccs2)c2ncnn2C)n1 [Example 406] | 3.31^[b]
71 | Cn1ncnc1C(=NOCc1nccc(NC(=O)C(C)(C)C)n1)c1cccs1 [Example 407] | 2.59^[b]
72 | Cn1ncnc1C(=NOCc1nccc(NC(=O)Cc2ccccc2)n1)c1cccs1 [Example 408] | 2.64^[b]
73 | Cn1ncnc1C(=NOCc1nccc(NC(=O)CCc2ccccc2)n1)c1cccs1 [Example 409] | 2.9^[b]
74 | CC(C)CC(=O)Nc1ccnc(CON=C(c2cccs2)c2ncnn2C)n1 [Example 410] | 2.56^[b]
75 | CCCCCOC(=O)Nc1cccc(CON=C(c2cccs2)c2nccn2C)n1 [Example 411] | 2.71^[b]
76 | CC(C)CC(=O)Nc1cccc(CON=C(c2cccs2)c2nccn2C)n1 [Example 412] | 1.91^[b]
77 | Cn1ccnc1C(=NOCc1cccc(NC(=O)C(C)(C)C)n1)c1cccs1 [Example 413] | 1.78^[b]
78 | Cn1ccnc1C(=NOCc1cccc(NC(=O)Cc2ccccc2)n1)c1cccs1 [Example 414] | 2.05^[b]

same assay, conditions: LC-MS, method [c]: pH 7.8 with 0.001 molar ammonium hydrogen carbonate solution in water, linear gradient 10% to 95% acetonitrile

Row | Compound | log p
79 | Cn1ccnc1C(=NOCc1nccc(N)n1)c1cccs1 [Example 386] | 1.13^[c]
80 | Cn1ccnc1C(=NOCc1cccc(N)n1)c1cccs1 [Example 387] | 1.74^[c]
